The IC50 is the concentration that gives 50% inhibition. Lower therefore signals greater potency in that assay.

The values below come from PMC6265919, “Acylated Aminooligosaccharides with Inhibitory Effects against α-Amylase from Streptomyces sp. HO1518” (Marine Drugs, 2018).

For the assay, the target named is T1, porcine pancreatic α-amylase (PPA) (Sus scrofa, UniProt P00690).
T1 sequence (P00690 16-511): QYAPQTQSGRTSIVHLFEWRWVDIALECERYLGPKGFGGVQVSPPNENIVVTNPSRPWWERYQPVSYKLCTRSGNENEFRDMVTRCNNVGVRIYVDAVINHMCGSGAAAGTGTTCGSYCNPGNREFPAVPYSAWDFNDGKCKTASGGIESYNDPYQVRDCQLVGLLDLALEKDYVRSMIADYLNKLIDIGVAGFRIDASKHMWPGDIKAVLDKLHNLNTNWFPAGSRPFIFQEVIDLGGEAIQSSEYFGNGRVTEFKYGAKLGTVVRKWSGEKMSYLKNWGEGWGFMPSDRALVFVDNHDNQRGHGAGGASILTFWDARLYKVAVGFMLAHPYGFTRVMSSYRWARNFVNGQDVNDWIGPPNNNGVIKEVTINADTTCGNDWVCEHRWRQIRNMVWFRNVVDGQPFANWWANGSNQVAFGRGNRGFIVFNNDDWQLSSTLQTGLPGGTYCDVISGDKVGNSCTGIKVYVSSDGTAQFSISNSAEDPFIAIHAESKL
Briefly: Porcine pancreatic α-amylase (PPA) inhibitory activity assay (starch-iodine). Format: biochemical. Particulars: PPA 50 U/mL, 0.2% soluble starch, phosphate buffer pH 6.9, 20 °C, 30 min; averages of three replicates. The protocol:
Porcine pancreatic α-amylase inhibitory (PPA) inhibitory activity assay was carried out reference to the procedure previously described. In brief, 5 μL of enzyme solution (PPA, 50 U/mL) and 10-fold series diluted test sample solution (inhibitors, dissolved in distilled water) were mixed and pre-incubated. 100 μL of 0.2% soluble starch (substrate, dissolved in 100 mM phosphate buffer, pH 6.9) was added and incubated at 20 °C for 30 min. The reaction was terminated by the addition of 20 μL 1 M HCl. The remaining starch was quantified by using the following method: 100 μL of the reaction solution was mixed with 25 μL of Lugol’s iodine solution. The absorption was measured at 630 nm in the 96-well plates. […] The data were imported into GraphPad Prism version 5.0 (GraphPad Software, San Diego, CA, USA, www.graphpad.com) and the IC50 values were calculated by using a standard dose response curve fitting.
Take `CCC(=O)OC[C@H]1O[C@H](O[C@H]2[C@H](O)[C@@H](O)[C@@H](O[C@H]3[C@H](O)[C@@H](O)[C@@H](O[C@H]4[C@H](O)[C@@H](O)C(O)O[C@@H]4CO)O[C@@H]3CO)O[C@@H]2CO)[C@H](O)[C@@H](O)[C@@H]1O[C@H]1O[C@H](C)[C@@H](N[C@H]2C=C(CO)[C@@H](O)[C@H](O)[C@H]2O)[C@H](O)[C@H]1O` (stereo partly drawn) [compound 4, D6-O-propionyl-acarviostatin I03]: the half-inhibitory concentration (IC50) was found to be 625 ± 24 nM.
Consider `C[C@H]1O[C@H](O[C@H]2[C@H](O)[C@@H](O)[C@@H](O[C@H]3[C@H](O)[C@@H](O)[C@@H](O[C@H]4[C@H](O)[C@@H](O)[C@@H](O[C@H]5[C@H](O)[C@@H](O)C(O)O[C@@H]5CO)O[C@@H]4CO)O[C@@H]3CO)O[C@@H]2CO)[C@H](O)[C@@H](O)[C@@H]1N[C@H]1C=C(CO)[C@@H](O[C@H]2O[C@H](CO)[C@@H](O[C@H]3O[C@H](C)[C@@H](N[C@H]4C=C(CO)[C@@H](O)[C@H](O)[C@H]4O)[C@H](O)[C@H]3O)[C@H](O)[C@H]2O)[C@H](O)[C@H]1O` (stereo partly drawn) [compound 6, acarviostatin II03], for which the IC50 was 29 ± 4 nM.
The compound `CC(O)CC(=O)OC[C@H]1O[C@H](O[C@H]2[C@H](O)[C@@H](O)[C@@H](O[C@H]3[C@H](O)[C@@H](O)[C@@H](O[C@H]4[C@H](O)[C@@H](O)C(O)O[C@@H]4CO)O[C@@H]3CO)O[C@@H]2CO)[C@H](O)[C@@H](O)[C@@H]1O[C@H]1O[C@H](C)[C@@H](N[C@H]2C=C(CO)[C@@H](O[C@H]3O[C@H](CO)[C@@H](O[C@H]4O[C@H](C)[C@@H](N[C@H]5C=C(CO)[C@@H](O)[C@H](O)[C@H]5O)[C@H](O)[C@H]4O)[C@H](O)[C@H]3O)[C@H](O)[C@H]2O)[C@H](O)[C@H]1O` (stereo partly drawn) [compound 2, D6-O-β-hydroxybutyryl-acarviostatin II03] showed an IC50 of 49 ± 16 nM.
Take `CC(=O)OC[C@H]1O[C@H](O[C@H]2[C@H](O)[C@@H](O)[C@@H](O[C@H]3[C@H](O)[C@@H](O)[C@@H](O[C@H]4[C@H](O)[C@@H](O)C(O)O[C@@H]4CO)O[C@@H]3CO)O[C@@H]2CO)[C@H](O)[C@@H](O)[C@@H]1O[C@H]1O[C@H](C)[C@@H](N[C@H]2C=C(CO)[C@@H](O)[C@H](O)[C@H]2O)[C@H](O)[C@H]1O` (stereo partly drawn) [compound 3, D6-O-acetyl-acarviostatin I03]: the half-maximal inhibitory concentration (IC50) is 693 ± 97 nM.
`CC(O)CC(=O)OC[C@H]1O[C@H](O[C@H]2[C@H](O)[C@@H](O)[C@@H](O[C@H]3[C@H](O)[C@@H](O)[C@@H](O[C@H]4[C@H](O)[C@@H](O)C(O)O[C@@H]4CO)O[C@@H]3CO)O[C@@H]2CO)[C@H](O)[C@@H](O)[C@@H]1O[C@H]1O[C@H](C)[C@@H](N[C@H]2C=C(CO)[C@@H](O)[C@H](O)[C@H]2O)[C@H](O)[C@H]1O` (stereo partly drawn) [compound 5, D6-O-β-hydroxybutyryl-acarviostatin I03] showed a 50% inhibitory concentration (IC50) of 495 ± 63 nM.
`CC(=O)OC[C@H]1O[C@H](O[C@H]2[C@H](O)[C@@H](O)[C@@H](O[C@H]3[C@H](O)[C@@H](O)[C@@H](O[C@H]4[C@H](O)[C@@H](O)C(O)O[C@@H]4CO)O[C@@H]3CO)O[C@@H]2CO)[C@H](O)[C@@H](O)[C@@H]1O[C@H]1O[C@H](C)[C@@H](N[C@H]2C=C(CO)[C@@H](O[C@H]3O[C@H](CO)[C@@H](O[C@H]4O[C@H](C)[C@@H](N[C@H]5C=C(CO)[C@@H](O)[C@H](O)[C@H]5O)[C@H](O)[C@H]4O)[C@H](O)[C@H]3O)[C@H](O)[C@H]2O)[C@H](O)[C@H]1O` (stereo partly drawn) [compound 1, D6-O-acetyl-acarviostatin II03] had an IC50 of 29 ± 1 nM.
